Laboratory results taken from publication PMC4557752, “EST-based in silico identification and in vitro test of antimicrobial peptides in Brassica napus” (BMC Genomics, 2015).

How the values were obtained:
[1] = test system: E. coli ATCC2592; assay: radial diffusion assay against E. coli (G- strain); format: cell-based, Escherichia coli; parameters: G- strain halo diameter: unit not given here; conditions: for G- strain halo diameter: radial diffusion, E. coli ATCC2592 approx 2 x 10^6 cfu/mL in 1 % agarose underlay gel, 3.5 mm holes, 100 μL AMP sample, 37 °C 12 h, diameter of clear zone, performed in triplicate, '-' = no zone
Description: (§1) Purified His-EDDIE-AMPs inclusion bodies were refolded by rapid 1:50 dilution in an optimized refolding buffer (500 mM NaCl, 20 mM Tris, 2 mM EDTA, 5 % glycerol, 10 mM DTT, 0.01 % Tween-20, pH 7.5) and incubated at an appropriate temperature without stirring. During refolding, EDDIE restored its correct conformation and self-cleaved at the specific sites, releasing AMPs from the fusion bodies. Renatured protein solution was then clarified by centrifugation at 15,000 x g at 4 °C for 30 min. The insoluble sample was removed by filtering through a 0.45 μm membrane, leaving the AMPs in the supernatant. The supernatants were transferred to a Ni-NTA His-bind column for purification.
(§2) The antimicrobial activities of recombinant AMPs were detected using a radial diffusion assay. E. coli ATCC2592 and M. luteus ACCC11001 were grown on the mid-logarithmic phase and washed. Approximately 2 × 10^6 cfu/mL bacteria were incorporated into a thin (1.2 mm) agarose underlay gel containing 1 % (w/v) agarose. Holes with 3.5 mm diameter were punched into the solidified agarose and were filled with 100 μL of AMP sample. After the plates were incubated at 37 °C for 12 h, the diameter of the clear zone surrounding each well was measured to evaluate the antimicrobial activity. The refolding buffer was used as negative controls. The above assays were performed in triplicate.

[2] = test system: M. luteus ACCC11001; assay: radial diffusion assay against M. luteus (G+ strain); format: cell-based, Micrococcus luteus; parameters: G+ strain halo diameter: unit not given here; conditions: for G+ strain halo diameter: radial diffusion, M. luteus ACCC11001 approx 2 x 10^6 cfu/mL in 1 % agarose underlay gel, 3.5 mm holes, 100 μL AMP sample, 37 °C 12 h, diameter of clear zone, performed in triplicate, '-' = no zone
Description: as §1, §2

[3] = test system: S. sclerotiorum; assay: antifungal radial diffusion assay on potato plates; format: cell-based, Sclerotinia sclerotiorum; conditions: PDA/potato plates, 200 μL sample beside the fungi, 22 °C 72 h; refolding buffer control
Description: as §1
The antifungal activity of the purified products was assayed using an ultra-sensitive radial diffusion method on thin potato plates (200 g potato, 20 g glucose, 15–20 g agar powder, 1 L double-distilled water) seeded with filamentous fungi. Briefly, 9-cm plates were poured with an underlay potato medium, and S. sclerotiorum on a 1-cm diameter potato medium were seeded on the center of the plates, which were then incubated at 22 °C until hypha grew to 2 cm in diameter. Two hundred microliters of the test sample and negative control (refolding buffer) was placed beside the filamentous fungi, and the plates were incubated at 22 °C for 72 h; the size of the clear area around the filamentous fungi was then measured.

Row | Sequence | G- strain halo diameter [1] | G+ strain halo diameter [2] | growth of the filamentous fungal strain S. sclerotiorum (in words) [3] | antimicrobial activity to Gram negative strains (in words) ([1]; radial diffusion assay, E. coli, refolding buffer as negative control) | antimicrobial activity to Gram positive strains (in words) ([2]; radial diffusion assay, M. luteus, refolding buffer as negative control)
1 | AITCGTVTSSLAPCATLSSSGGEMPPPLCGGCAGVKKLNGMAQTTADRQ [Bn7, recombinant B. napus AMP candidate, 49 aa] | 1.311 |  |  |  | 
2 | ALTCGTVNSNVAPCIGYITQGGPLPGACCTG [Bn27, recombinant B. napus AMP candidate, 31 aa] | 1.756 | 2.044 |  |  | 
3 | ALTCGTVNSNVARALAILPRGDRCPERAAPAKAN [Bn26, recombinant B. napus AMP candidate, 34 aa] | 1.533 | 1.489 |  |  | 
4 | AVTCNNVVGDLYPCLSYVMRGGNAPSTNCCNGVRTLNSQAQTTADRQSVCRCIKNA [Bn21, recombinant B. napus AMP candidate, 56 aa] | 1.711 | 1.867 |  |  | 
5 | CAPNHCCSQFGYCGTNDAHCGAGCKS [Bn29, recombinant B. napus AMP candidate] | 1.7 |  |  |  | 
6 | CASGVGCSQYGYCGNGPDYCG [Bn28, recombinant B. napus AMP candidate, 21 aa] | 0.867 | 1.089 |  |  | 
7 | EQCGRQAGGALCPNGLCCSNLAGAAIPNRIANRPVARASVAA [Bn2, recombinant B. napus AMP candidate, 42 aa] | 1.189 | 1.067 |  |  | 
8 | EQCGRRRVERCSRMAVLCEFGWCGDTEPYCKQTGCQSQCGG [Bn3, recombinant B. napus AMP candidate, 41 aa] | 1.867 | 1.811 |  |  | 
9 | GKPSGSEKDKDKKKQPITRSARAGLQFPVGRVHRLLK [Bn5, recombinant B. napus AMP candidate, 37 aa] | 1.711 | 2.2 |  |  | 
10 | GRKAGGPKNKSVSKSIKAGLQFPVGRITRFLKKGRYAQRLGGERREIRLLTKPE [Bn1, recombinant B. napus AMP candidate, 54 aa] | 1.256 | 1.633 |  |  | 
11 | IQCGKFFSCSEINTCCCLFKCGKYYFGWGCCPLEASTCCDDNTSCCP [Bn22, recombinant B. napus AMP candidate] | 0.433 |  |  |  | 
12 | KECEERSRQSRSFSVICKYDYACQNHCINLEKADGGQCNSRSPTAKCICYFQC [Bn8, recombinant B. napus AMP candidate, 53 aa] | 1.656 | 2.056 |  |  | 
13 | KTCCPTTTARRIFDSCYGPSVPLTFCARISGCHLFPQSTTCPPEFP [Bn18, recombinant B. napus AMP candidate, 46 aa] | 1.978 | 0.107 |  |  | 
14 | KTHEEKSKTYRRLCVDETGCNHACIFNEHFAGGHCRHLECFC [Bn17, recombinant B. napus AMP candidate, 42 aa] | 0.467 | 0.178 |  |  | 
15 | LQFPVGRISRYLKKGRYAIRYGAGAP [Bn30, recombinant B. napus AMP candidate, 26 aa] | 1.289 | 1.4 | grow normally |  | 
16 | NICCSQYGYCGTTADYCSPDNNCQSNC [Bn15, recombinant B. napus AMP candidate, 27 aa] |  | 0.944 |  |  | 
17 | NQCGQFVSGALINTCCCLFKCG [Bn23, recombinant B. napus AMP candidate, 22 aa] | 0.756 | 1.233 |  |  | 
18 | NWCGGKCEVRCKDVGMNDRCLKYCGICCKECKC [Bn20, recombinant B. napus AMP candidate, 33 aa] | 1.489 | 1.089 |  |  | 
19 | PPTQNPSMAPPTQNPYGQPMAPPTQNPYGQPMAPP [Bn19, recombinant B. napus AMP, 35 aa; new member of the proline-rich antimicrobial peptide family, similar to SP-B] | 3.011 | 3.022 |  | highest activities | highest activities
20 | QNCGCAPNLCCSQFGYCGSTDAYRDWLP [Bn25, recombinant B. napus AMP candidate, 28 aa] | 1.567 | 0.367 |  |  | 
21 | RCREASRKKVCYRAGGSCCAKCQCVPPGTSGNTASCPCYANLRTHGNKLKCP [Bn4, recombinant B. napus AMP candidate, 52 aa] | 2.122 | 2.167 |  |  | 
22 | RMCETSSQLFNGPCLSTNCANICQNEGFPDGDCKGFRLRCICNRPC [Bn13, recombinant B. napus AMP candidate, 46 aa] | 2.222 | 1.722 |  |  | 
23 | RTCESRSHRFKGPCVSENNCANVCHT [Bn24, recombinant B. napus AMP candidate, 26 aa] |  | 0.967 |  |  | 
24 | RVCNTQSHHYRGPCWRNHNCAMVCRTEGFSGGDCVGIPRRCYCTKRC [Bn16, recombinant B. napus AMP candidate, 47 aa] |  | 1.322 |  |  | 
25 | VVCDKSYTCPDKSTCCCVSESKGKCDSWGCCPFESATCCENGSSCCP [Bn10, recombinant B. napus AMP candidate, 47 aa] | 1.722 | 1.2 |  |  | 
26 | YVCTRVDCSGRCKGRCNKSSRPNLCLRACNSCCFRCNCVPPPGTHGNHHLRPCYASITT [Bn14, recombinant B. napus AMP candidate, 59 aa] | 2.589 | 2.489 |  |  | 
